In ChEMBL document CHEMBL3991601, “The target landscape of clinical kinase drugs” (Science, 2017):
Activity calls are given as the source filed them.

Experiments:
Actin-related protein 2 = Actin-related protein 2 (Homo sapiens, UniProt P61160)
[1] = biological target: Adenylate kinase 2, mitochondrial (Homo sapiens, UniProt P54819)
[2] = biological target: T1, Serine/threonine-protein kinase A-Raf (Homo sapiens, UniProt P10398)
T1 sequence (P10398 whole entry): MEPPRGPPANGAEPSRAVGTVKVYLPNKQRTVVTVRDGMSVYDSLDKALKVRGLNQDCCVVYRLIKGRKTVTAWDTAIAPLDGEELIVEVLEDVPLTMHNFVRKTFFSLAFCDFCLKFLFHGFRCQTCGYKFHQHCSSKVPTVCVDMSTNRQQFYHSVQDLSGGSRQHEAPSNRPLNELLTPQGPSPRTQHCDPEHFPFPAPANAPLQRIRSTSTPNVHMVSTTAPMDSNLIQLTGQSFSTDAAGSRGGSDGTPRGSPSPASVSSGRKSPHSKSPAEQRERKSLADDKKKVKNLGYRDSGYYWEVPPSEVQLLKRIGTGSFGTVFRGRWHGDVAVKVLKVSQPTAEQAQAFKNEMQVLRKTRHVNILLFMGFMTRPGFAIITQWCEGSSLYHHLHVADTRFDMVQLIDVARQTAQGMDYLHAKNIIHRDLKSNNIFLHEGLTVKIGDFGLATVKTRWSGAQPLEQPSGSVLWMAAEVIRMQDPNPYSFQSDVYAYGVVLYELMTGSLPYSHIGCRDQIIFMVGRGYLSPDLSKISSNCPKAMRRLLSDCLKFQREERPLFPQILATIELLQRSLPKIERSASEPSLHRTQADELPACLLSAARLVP

[3] = biological target: Serine/threonine-protein kinase B-raf (Homo sapiens, UniProt P15056)
Chain of Serine/threonine-protein kinase B-raf (P15056 whole entry): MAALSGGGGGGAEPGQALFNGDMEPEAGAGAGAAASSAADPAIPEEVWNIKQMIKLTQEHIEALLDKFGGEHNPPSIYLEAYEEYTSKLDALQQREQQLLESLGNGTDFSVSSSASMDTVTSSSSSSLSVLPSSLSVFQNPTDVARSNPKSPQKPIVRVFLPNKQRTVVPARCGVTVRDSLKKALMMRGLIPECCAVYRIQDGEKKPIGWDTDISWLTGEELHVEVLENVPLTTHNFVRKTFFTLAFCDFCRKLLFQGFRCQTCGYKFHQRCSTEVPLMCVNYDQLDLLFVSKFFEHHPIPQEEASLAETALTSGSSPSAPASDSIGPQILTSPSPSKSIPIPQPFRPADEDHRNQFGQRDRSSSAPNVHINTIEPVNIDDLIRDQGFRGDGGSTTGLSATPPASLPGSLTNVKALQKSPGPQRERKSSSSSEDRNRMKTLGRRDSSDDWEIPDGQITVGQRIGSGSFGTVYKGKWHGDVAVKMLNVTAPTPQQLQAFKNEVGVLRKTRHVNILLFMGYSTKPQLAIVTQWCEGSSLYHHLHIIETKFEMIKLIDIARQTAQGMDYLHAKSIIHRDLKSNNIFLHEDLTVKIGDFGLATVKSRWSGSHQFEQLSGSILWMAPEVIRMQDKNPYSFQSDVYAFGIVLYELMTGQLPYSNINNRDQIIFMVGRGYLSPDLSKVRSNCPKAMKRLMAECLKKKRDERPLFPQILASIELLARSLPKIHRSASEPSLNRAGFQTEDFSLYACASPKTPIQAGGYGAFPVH

[4] = biological target: Serine/threonine-protein kinase/endoribonuclease IRE1 (Homo sapiens, UniProt O75460)
Chain of Serine/threonine-protein kinase/endoribonuclease IRE1 (O75460 whole entry): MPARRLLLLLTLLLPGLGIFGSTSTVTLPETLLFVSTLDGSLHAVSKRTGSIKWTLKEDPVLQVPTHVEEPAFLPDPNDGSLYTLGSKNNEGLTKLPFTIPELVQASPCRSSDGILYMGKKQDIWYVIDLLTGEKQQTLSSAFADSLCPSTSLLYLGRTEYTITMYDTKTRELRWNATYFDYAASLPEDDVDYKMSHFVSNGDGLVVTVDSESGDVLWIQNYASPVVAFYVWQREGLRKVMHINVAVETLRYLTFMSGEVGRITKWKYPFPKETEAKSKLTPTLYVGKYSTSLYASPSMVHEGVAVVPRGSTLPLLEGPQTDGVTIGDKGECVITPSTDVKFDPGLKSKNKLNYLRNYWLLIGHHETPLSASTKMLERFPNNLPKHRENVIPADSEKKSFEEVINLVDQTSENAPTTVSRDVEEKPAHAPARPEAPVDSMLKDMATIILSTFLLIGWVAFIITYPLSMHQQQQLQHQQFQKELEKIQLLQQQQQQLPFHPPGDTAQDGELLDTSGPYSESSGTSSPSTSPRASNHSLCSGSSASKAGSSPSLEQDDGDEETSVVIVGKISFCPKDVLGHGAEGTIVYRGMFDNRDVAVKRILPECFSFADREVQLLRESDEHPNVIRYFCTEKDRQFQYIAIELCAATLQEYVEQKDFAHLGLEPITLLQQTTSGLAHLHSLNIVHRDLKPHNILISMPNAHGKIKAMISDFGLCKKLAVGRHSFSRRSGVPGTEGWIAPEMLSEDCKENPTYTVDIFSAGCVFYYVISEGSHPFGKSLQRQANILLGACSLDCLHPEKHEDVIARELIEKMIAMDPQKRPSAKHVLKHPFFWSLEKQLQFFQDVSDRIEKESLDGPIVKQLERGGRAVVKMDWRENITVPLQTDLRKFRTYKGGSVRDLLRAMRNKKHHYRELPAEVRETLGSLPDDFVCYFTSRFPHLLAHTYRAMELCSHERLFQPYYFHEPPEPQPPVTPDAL

[5] = biological target: Inosine-5'-monophosphate dehydrogenase 2 (Homo sapiens, UniProt P12268)
[6] = biological target: T2, Dual specificity mitogen-activated protein kinase kinase 6 (Homo sapiens, UniProt P52564)
T2 sequence (P52564 whole entry): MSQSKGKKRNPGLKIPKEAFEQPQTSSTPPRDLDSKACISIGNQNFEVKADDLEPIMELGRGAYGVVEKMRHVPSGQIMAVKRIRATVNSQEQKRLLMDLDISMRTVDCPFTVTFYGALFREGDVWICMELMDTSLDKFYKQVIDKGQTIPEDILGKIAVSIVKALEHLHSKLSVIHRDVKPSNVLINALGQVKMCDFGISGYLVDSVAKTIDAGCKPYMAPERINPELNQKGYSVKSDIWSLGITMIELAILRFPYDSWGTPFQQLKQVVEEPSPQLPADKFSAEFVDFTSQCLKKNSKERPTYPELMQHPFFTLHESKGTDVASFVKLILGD

[7] = biological target: T3, Mitogen-activated protein kinase kinase kinase kinase 2 (Homo sapiens, UniProt Q12851)
T3 sequence (Q12851 whole entry): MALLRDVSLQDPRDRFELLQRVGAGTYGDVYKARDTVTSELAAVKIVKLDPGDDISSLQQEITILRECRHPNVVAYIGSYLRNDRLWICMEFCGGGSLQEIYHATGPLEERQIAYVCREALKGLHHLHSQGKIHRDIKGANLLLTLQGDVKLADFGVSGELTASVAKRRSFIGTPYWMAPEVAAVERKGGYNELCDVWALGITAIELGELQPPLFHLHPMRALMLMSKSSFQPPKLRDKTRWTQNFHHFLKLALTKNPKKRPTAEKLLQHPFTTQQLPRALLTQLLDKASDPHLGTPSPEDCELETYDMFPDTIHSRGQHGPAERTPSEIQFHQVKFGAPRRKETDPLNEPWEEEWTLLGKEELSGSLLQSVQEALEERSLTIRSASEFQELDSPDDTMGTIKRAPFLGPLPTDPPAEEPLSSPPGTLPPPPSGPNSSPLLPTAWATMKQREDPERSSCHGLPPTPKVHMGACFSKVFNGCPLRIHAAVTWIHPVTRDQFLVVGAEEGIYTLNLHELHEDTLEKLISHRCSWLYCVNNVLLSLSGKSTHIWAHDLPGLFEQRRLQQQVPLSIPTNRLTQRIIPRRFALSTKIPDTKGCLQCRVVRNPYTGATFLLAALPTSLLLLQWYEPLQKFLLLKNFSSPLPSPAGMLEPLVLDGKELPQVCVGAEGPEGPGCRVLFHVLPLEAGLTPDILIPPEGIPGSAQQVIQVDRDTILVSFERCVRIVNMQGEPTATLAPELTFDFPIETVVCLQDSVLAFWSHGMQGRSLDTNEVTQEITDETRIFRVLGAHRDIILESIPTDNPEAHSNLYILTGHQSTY

[8] = biological target: Mitogen-activated protein kinase 11 (Homo sapiens, UniProt Q15759)
Chain of Mitogen-activated protein kinase 11 (Q15759 whole entry): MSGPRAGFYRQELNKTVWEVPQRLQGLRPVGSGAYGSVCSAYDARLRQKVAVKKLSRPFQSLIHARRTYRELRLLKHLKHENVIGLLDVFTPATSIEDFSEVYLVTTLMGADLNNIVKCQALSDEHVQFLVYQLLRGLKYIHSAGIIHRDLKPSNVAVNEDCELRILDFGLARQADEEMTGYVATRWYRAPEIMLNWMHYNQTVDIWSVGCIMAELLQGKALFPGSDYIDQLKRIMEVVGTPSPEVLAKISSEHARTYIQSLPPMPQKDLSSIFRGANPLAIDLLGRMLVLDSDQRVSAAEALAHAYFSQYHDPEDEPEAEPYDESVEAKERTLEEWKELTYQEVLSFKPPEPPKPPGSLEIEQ

[9] = biological target: cAMP-dependent protein kinase catalytic subunit gamma (Homo sapiens, UniProt P22612)
Chain of cAMP-dependent protein kinase catalytic subunit gamma (P22612 whole entry): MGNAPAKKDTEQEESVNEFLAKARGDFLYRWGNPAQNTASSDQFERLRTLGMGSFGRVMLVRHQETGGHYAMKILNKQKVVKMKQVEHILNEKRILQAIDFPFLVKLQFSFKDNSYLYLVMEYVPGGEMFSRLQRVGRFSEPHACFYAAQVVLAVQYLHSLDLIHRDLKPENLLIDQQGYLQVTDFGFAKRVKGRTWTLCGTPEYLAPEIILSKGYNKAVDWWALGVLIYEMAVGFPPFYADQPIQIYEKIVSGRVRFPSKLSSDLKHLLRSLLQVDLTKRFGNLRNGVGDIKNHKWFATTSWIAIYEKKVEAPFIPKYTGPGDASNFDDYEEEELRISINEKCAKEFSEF

[10] = biological target: Protein kinase C beta type (Homo sapiens, UniProt P05771)
Chain of Protein kinase C beta type (P05771 whole entry): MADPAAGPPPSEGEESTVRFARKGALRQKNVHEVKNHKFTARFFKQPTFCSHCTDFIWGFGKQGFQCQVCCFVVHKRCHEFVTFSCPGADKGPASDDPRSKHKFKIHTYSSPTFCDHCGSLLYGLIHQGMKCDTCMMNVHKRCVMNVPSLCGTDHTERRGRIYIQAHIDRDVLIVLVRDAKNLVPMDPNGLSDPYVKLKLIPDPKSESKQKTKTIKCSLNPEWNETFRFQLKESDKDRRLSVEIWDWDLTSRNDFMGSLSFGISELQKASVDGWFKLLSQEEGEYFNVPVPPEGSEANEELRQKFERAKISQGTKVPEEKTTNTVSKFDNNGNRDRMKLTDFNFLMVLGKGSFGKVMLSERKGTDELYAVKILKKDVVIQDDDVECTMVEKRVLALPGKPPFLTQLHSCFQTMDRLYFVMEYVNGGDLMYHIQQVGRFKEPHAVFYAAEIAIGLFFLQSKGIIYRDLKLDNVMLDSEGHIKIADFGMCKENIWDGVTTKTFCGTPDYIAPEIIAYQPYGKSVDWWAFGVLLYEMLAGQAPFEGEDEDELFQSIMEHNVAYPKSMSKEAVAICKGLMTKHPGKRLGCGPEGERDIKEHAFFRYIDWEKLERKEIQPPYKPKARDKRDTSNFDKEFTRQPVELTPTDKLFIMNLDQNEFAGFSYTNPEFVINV

[11] = biological target: Ribosomal protein S6 kinase beta-1 (Homo sapiens, UniProt P23443)
Chain of Ribosomal protein S6 kinase beta-1 (P23443 whole entry): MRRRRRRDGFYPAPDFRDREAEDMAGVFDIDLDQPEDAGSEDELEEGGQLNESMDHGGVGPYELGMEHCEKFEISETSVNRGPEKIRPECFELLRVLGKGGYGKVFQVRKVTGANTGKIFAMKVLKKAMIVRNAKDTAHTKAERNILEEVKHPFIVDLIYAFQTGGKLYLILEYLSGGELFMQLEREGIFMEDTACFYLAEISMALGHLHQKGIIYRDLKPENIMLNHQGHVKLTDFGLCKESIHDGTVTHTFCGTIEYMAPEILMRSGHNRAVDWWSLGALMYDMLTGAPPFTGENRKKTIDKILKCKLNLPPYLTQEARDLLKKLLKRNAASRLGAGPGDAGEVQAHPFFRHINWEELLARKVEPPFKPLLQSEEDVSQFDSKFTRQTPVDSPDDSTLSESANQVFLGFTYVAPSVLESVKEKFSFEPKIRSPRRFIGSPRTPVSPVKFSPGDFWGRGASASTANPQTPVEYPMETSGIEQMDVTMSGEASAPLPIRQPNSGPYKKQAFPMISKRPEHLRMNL

[12] = biological target: T4, Uncharacterized protein FLJ45252 (Homo sapiens, UniProt Q6ZSR9); conditions: read-out: Kd apparent; k-562, colo 205, sk-n-be(2) and mv-4-11
T4 sequence (Q6ZSR9 whole entry): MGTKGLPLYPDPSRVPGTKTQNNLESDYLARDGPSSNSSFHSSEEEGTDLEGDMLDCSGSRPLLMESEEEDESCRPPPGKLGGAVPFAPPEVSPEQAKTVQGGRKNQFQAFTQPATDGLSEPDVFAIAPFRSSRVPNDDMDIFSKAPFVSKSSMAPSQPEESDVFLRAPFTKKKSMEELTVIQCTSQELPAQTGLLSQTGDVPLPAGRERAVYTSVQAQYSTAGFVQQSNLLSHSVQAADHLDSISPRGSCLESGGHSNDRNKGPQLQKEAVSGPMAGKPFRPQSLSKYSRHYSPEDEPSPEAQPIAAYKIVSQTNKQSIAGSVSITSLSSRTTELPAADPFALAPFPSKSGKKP
Note: in the data inactive means no Kd found up to 30 µM.

Kd (Actin-related protein 2) | Kd [1] | Kd [2] | Kd [3] | Kd [4] | Kd [5] | Kd [6] | Kd [7] | Kd [8] | Kd [9] | Kd [10] | Kd [11] | Kd [12] | Compound
> 30 µM (inactive) | > 30 µM (inactive) | > 30 µM (inactive) | > 30 µM (inactive) | > 30 µM (inactive) | > 30 µM (inactive) | > 30 µM (inactive) | > 30 µM (inactive) | > 30 µM (inactive) | > 30 µM (inactive) | > 30 µM (inactive) | > 30 µM (inactive) | > 30 µM (inactive) | O=C(NC[C@H](O)CO)c1ccncc1Nc1ccc(I)cc1F [PIMASERTIB]
> 30 µM (inactive) | > 30 µM (inactive) | > 30 µM (inactive) | > 30 µM (inactive) | > 30 µM (inactive) | > 30 µM (inactive) | > 30 µM (inactive) | > 30 µM (inactive) | > 30 µM (inactive) | > 30 µM (inactive) | > 30 µM (inactive) | > 30 µM (inactive) | > 30 µM (inactive) | COc1cc(Nc2ncc(F)c(Nc3ccc4c(n3)N(COP(=O)(O)O)C(=O)C(C)(C)O4)n2)cc(OC)c1OC [FOSTAMATINIB]
> 30 µM (inactive) | > 30 µM (inactive) | > 30 µM (inactive) | > 30 µM (inactive) | > 30 µM (inactive) | > 30 µM (inactive) | > 30 µM (inactive) | > 30 µM (inactive) | > 30 µM (inactive) | > 30 µM (inactive) | > 30 µM (inactive) | > 30 µM (inactive) | > 30 µM (inactive) | CNC(=O)c1cc(COc2nnc(Nc3ccc(Cl)cc3)c3ccoc23)ccn1 [TELATINIB]
> 30 µM (inactive) | > 30 µM (inactive) | > 30 µM (inactive) | > 30 µM (inactive) | > 30 µM (inactive) | > 30 µM (inactive) | > 30 µM (inactive) | > 30 µM (inactive) | > 30 µM (inactive) | > 30 µM (inactive) | > 30 µM (inactive) | > 30 µM (inactive) | > 30 µM (inactive) | COc1ccc(-c2ccc3ncc4c(c3c2)n(-c2ccc(N3CCNCC3)c(C(F)(F)F)c2)c(=O)n4C)cn1 [BGT-226 FREE BASE]
> 30 µM (inactive) | > 30 µM (inactive) | > 30 µM (inactive) | > 30 µM (inactive) | > 30 µM (inactive) | > 30 µM (inactive) | > 30 µM (inactive) | > 30 µM (inactive) | > 30 µM (inactive) | > 30 µM (inactive) | > 30 µM (inactive) | > 30 µM (inactive) | > 30 µM (inactive) | Cc1cc(Nc2nc(N[C@@H](C)c3ncc(F)cn3)ncc2Cl)n[nH]1 [AZD-1480]
> 30 µM (inactive) | > 30 µM (inactive) | > 30 µM (inactive) | > 30 µM (inactive) | > 30 µM (inactive) | > 30 µM (inactive) | > 30 µM (inactive) | > 30 µM (inactive) | > 30 µM (inactive) | > 30 µM (inactive) | > 30 µM (inactive) | > 30 µM (inactive) | > 30 µM (inactive) | C[C@@H]1COC(Nc2ccc3ncnc(Nc4ccc(OCc5nccs5)c(Cl)c4)c3c2)=N1 [VARLITINIB]
> 30 µM (inactive) | > 30 µM (inactive) | > 30 µM (inactive) | > 30 µM (inactive) | > 30 µM (inactive) | > 30 µM (inactive) | > 30 µM (inactive) | > 30 µM (inactive) | > 30 µM (inactive) | > 30 µM (inactive) | 1.62 µM (active) | > 30 µM (inactive) | 0.088 µM (active) | CCN1CCN(Cc2ccc(Nc3ncc(F)c(-c4cc(F)c5nc(C)n(C(C)C)c5c4)n3)nc2)CC1 [ABEMACICLIB]
> 30 µM (inactive) | > 30 µM (inactive) | > 30 µM (inactive) | > 30 µM (inactive) | > 30 µM (inactive) | > 30 µM (inactive) | > 30 µM (inactive) | > 30 µM (inactive) | > 30 µM (inactive) | > 30 µM (inactive) | > 30 µM (inactive) | > 30 µM (inactive) | > 30 µM (inactive) | O=C(O)c1ccc2c(c1)nc(Nc1cccc(Cl)c1)c1ccncc12 [SILMITASERTIB]
> 30 µM (inactive) | > 30 µM (inactive) | > 30 µM (inactive) | > 30 µM (inactive) | > 30 µM (inactive) | > 30 µM (inactive) | > 30 µM (inactive) | > 30 µM (inactive) | > 30 µM (inactive) | > 30 µM (inactive) | > 30 µM (inactive) | > 30 µM (inactive) | > 30 µM (inactive) | CCc1cc2c(cc1N1CCC(N3CCOCC3)CC1)C(C)(C)c1[nH]c3cc(C#N)ccc3c1C2=O [ALECTINIB]

Compound | Kd (Actin-related protein 2) | Kd [1] | Kd [2] | Kd [3] | Kd [4] | Kd [5] | Kd [6] | Kd [7] | Kd [8] | Kd [9] | Kd [10] | Kd [11] | Kd [12]
CC1(COc2ccc3c(c2)ncn3-c2ccc3cccc(N4CCC(N)CC4)c3n2)COC1 [CRENOLANIB] | > 30 µM (inactive) | > 30 µM (inactive) | > 30 µM (inactive) | > 30 µM (inactive) | > 30 µM (inactive) | > 30 µM (inactive) | > 30 µM (inactive) | > 30 µM (inactive) | > 30 µM (inactive) | > 30 µM (inactive) | > 30 µM (inactive) | > 30 µM (inactive) | > 30 µM (inactive)
COCCN1CCN(Cc2ccc(-c3n[nH]c4c3C(=O)c3c(NC(=O)NN5CCOCC5)cccc3-4)cc2)CC1 [RGB-286638] | > 30 µM (inactive) | > 30 µM (inactive) | > 30 µM (inactive) | > 30 µM (inactive) | > 30 µM (inactive) | > 30 µM (inactive) | 1.95 µM (active) | > 30 µM (inactive) | > 30 µM (inactive) | > 30 µM (inactive) | > 30 µM (inactive) | > 30 µM (inactive) | 0.022 µM (active)
Cc1c(Cn2c(C)nc3c(C(=O)O)cc(N4CCOCC4)cc32)cccc1C(F)(F)F [GSK-2636771] | > 30 µM (inactive) | > 30 µM (inactive) | > 30 µM (inactive) | > 30 µM (inactive) | > 30 µM (inactive) | > 30 µM (inactive) | > 30 µM (inactive) | > 30 µM (inactive) | > 30 µM (inactive) | > 30 µM (inactive) | > 30 µM (inactive) | > 30 µM (inactive) | > 30 µM (inactive)
